# Test results published in patent US12685297B2, “Genetically modified mouse, methods for producing the same, and uses thereof” (MacKay Memorial Hospital, priority 2023, dated 2026).
# Test system: GYP.Mur knock-in mice and control mice
# Assay: Evaluation of anti-hypertensive medications: blood pressure after oral gavage
# Format: in vivo, mouse (C57BL/6J)
# Description: Mouse BP was measured using an 8-channel non-invasive blood pressure system, a conventional instrument for murine BP measurements with about 99% correlation to the invasive telemetry approach. The BP system is a traditional, tail-cuff method, with a volume-pressure recording (VPR) sensor-cuff (similar to a stethoscope) and an occlusion cuff (similar to the arm cuff for conventional human BP measurement). The instrument settings in this study were 5 acclimation cycles, 15 cycles per set, 250 mmHg as the maximal occlusion pressure, and 20 seconds for deflation. Before the measurement, the experimenter gently placed a mouse in a holder or at the entry point of the holder, from which the mouse could voluntarily walked into the holder. An occlusion cuff and a VPR cuff were then fitted onto the mouse tail. The holder carrying a cuffed mouse inside was moved to the warming platform and covered with a thermal blanket, which ensured the temperature of the tail to be within 32-35° C. during volume-pressure-based BP measurements. Invalid measurements were mostly due to unmet tail temperature or restless states of the animal, which were identified and excluded. After BP measurements, the mice were immediately put back to their own cage. The body weight (BW) of each mouse was measured for preparation of individual anti-hypertensive doses (in mg drug per Kg BW). The mice were individually administered by oral gavage of an anti-hypertensive drug mixed in 100 μL autoclaved ddH2O. The dose and maximal efficacy of an anti-hypertensive drug was determined based on the degrees of BP drop within an hour of anti-hypertensive administration. One dose of an anti-hypertensive drug was tested on a single day. On the morning of the test day, the blood pressure of GYP.Mur knock-in mice and age-matched control mice (wild-type mice) was first measured. Only the mice with SBP>120 mmHg on that day were tested with an anti-hypertensive medication. The BP and heart rates (HR) of the mice were measured at the 1st, 3rd, 5th, and the 24th hour post-medication. […]
smiles,measurement,setting,value
CCOC(=O)C1=C(COCCN)NC(C)=C(C(=O)OC)C1c1ccccc1Cl (stereo not drawn) [amlodipine],duration of sustained BP-lowering effects,"following oral gavage, control and GYP.Mur knock-in mice",5 h
C[C@H](CS)C(=O)N1CCC[C@H]1C(=O)O [captopril],BP-lowering effects at the 3rd hour post-oral gavage,"3rd hour post-oral gavage, compared with one hour, data not shown",slightly diminished
same,time after medication at which BP was lowered most substantially,"oral gavage, control and GYP.Mur knock-in mice, data not shown",one
